Source: PubChem BioAssay AID2060487 (Molecular Pharmacology Branch, DTP, NCI, 2025)

Test system: 997537-175-T-J1-PDC complex spheroid viability
Assay: Anticancer human tumor 997537-175-T-J1-PDC patient-derived colon adenocarcinoma cell line growth inhibition [GQUAD]
Settings: for IC50: curve of first compound; for viability, T/C: stronger effect = lower value
Summary of the method: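 Viability of tumor cells grown as complex spheroids with endothelial and stromal cells, exposed to drug combinations. Top concentration at or near clinical Cmax (else 10 microM), diluted in half-log increments.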

[1] = second compound 0.0316 µM, first compound 0.0316 µM
[2] = second compound 0.0316 µM, first compound 0.316 µM
[3] = second compound 0.1 µM, first compound 0.0316 µM
[4] = second compound 0.1 µM, first compound 0.316 µM
[5] = second compound 0.316 µM, first compound 0.0316 µM
[6] = second compound 0.316 µM, first compound 0.316 µM
[7] = second compound 1 µM, first compound 0.0316 µM
[8] = second compound 1 µM, first compound 0.316 µM
[9] = second compound 3.16 µM, first compound 0.0316 µM
[10] = second compound 3.16 µM, first compound 0.316 µM
[11] = second compound 10 µM, first compound 0.0316 µM
[12] = second compound 10 µM, first compound 0.316 µM
[13] = second compound 0.0316 µM, first compound 0.000999 µM
[14] = second compound 0.0316 µM, first compound 0.00316 µM
[15] = second compound 0.0316 µM, first compound 0.00999 µM
[16] = second compound 0.0316 µM, first compound 0.0999 µM
[17] = second compound 0.1 µM, first compound 0.000999 µM
[18] = second compound 0.1 µM, first compound 0.00316 µM
[19] = second compound 0.1 µM, first compound 0.00999 µM
[20] = second compound 0.1 µM, first compound 0.0999 µM
[21] = second compound 0.316 µM, first compound 0.000999 µM
[22] = second compound 0.316 µM, first compound 0.00316 µM
[23] = second compound 0.316 µM, first compound 0.00999 µM
[24] = second compound 0.316 µM, first compound 0.0999 µM
[25] = second compound 1 µM, first compound 0.000999 µM
[26] = second compound 1 µM, first compound 0.00316 µM
[27] = second compound 1 µM, first compound 0.00999 µM
[28] = second compound 1 µM, first compound 0.0999 µM
[29] = second compound 3.16 µM, first compound 0.000999 µM
[30] = second compound 3.16 µM, first compound 0.00316 µM
[31] = second compound 3.16 µM, first compound 0.00999 µM
[32] = second compound 3.16 µM, first compound 0.0999 µM
[33] = second compound 10 µM, first compound 0.000999 µM
[34] = second compound 10 µM, first compound 0.00316 µM
[35] = second compound 10 µM, first compound 0.00999 µM
[36] = second compound 10 µM, first compound 0.0999 µM
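Also: spheroids exposed to the agents for 7 days.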
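For viability, T/C in this document: 100% = DMSO vehicle control viability.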

C=CC(=O)N1CCN(c2nc(=O)n(-c3c(C)ccnc3C(C)C)c3nc(-c4c(O)cccc4F)c(F)cc23)C(C)C1 (stereo unspecified) + Cc1[nH]c2ccc(F)cc2c1-c1nc2c3cccnc3c3ncccc3c2[nH]1
IC50 (second compound 0.0316 µM): > 10000 nM
IC50 (second compound 0.1 µM): > 10000 nM
IC50 (second compound 0.316 µM): > 10000 nM
IC50 (second compound 1 µM): > 10000 nM
IC50 (second compound 3.16 µM): > 10000 nM
IC50 (second compound 10 µM): > 10000 nM
viability, T/C [1]: 102%
viability, T/C (second compound 0.0316 µM, first compound 0.1 µM): 89.9%
viability, T/C [2]: 86.2%
viability, T/C (second compound 0.0316 µM, first compound 1 µM): 92.5%
viability, T/C (second compound 0.0316 µM, first compound 3.16 µM): 91.7%
viability, T/C (second compound 0.0316 µM, first compound 10 µM): 97.5%
viability, T/C [3]: 91.1%
viability, T/C (second compound 0.1 µM, first compound 0.1 µM): 71.1%
viability, T/C [4]: 87.9%
viability, T/C (second compound 0.1 µM, first compound 1 µM): 75.4%
viability, T/C (second compound 0.1 µM, first compound 3.16 µM): 101%
viability, T/C (second compound 0.1 µM, first compound 10 µM): 92%
viability, T/C [5]: 92.4%
viability, T/C (second compound 0.316 µM, first compound 0.1 µM): 65.8%
viability, T/C [6]: 74.8%
viability, T/C (second compound 0.316 µM, first compound 1 µM): 85.9%
viability, T/C (second compound 0.316 µM, first compound 3.16 µM): 95.3%
viability, T/C (second compound 0.316 µM, first compound 10 µM): 96.5%
viability, T/C [7]: 92.8%
viability, T/C (second compound 1 µM, first compound 0.1 µM): 89.9%
viability, T/C [8]: 87.9%
viability, T/C (second compound 1 µM, first compound 1 µM): 83.2%
viability, T/C (second compound 1 µM, first compound 3.16 µM): 90.2%
viability, T/C (second compound 1 µM, first compound 10 µM): 97.6%
viability, T/C [9]: 80.7%
viability, T/C (second compound 3.16 µM, first compound 0.1 µM): 72.5%
viability, T/C [10]: 74.3%
viability, T/C (second compound 3.16 µM, first compound 1 µM): 89%
viability, T/C (second compound 3.16 µM, first compound 3.16 µM): 100%
viability, T/C (second compound 3.16 µM, first compound 10 µM): 80%
viability, T/C [11]: 82.3%
viability, T/C (second compound 10 µM, first compound 0.1 µM): 75.8%
viability, T/C [12]: 87.3%
viability, T/C (second compound 10 µM, first compound 1 µM): 69.8%
viability, T/C (second compound 10 µM, first compound 3.16 µM): 79.3%
viability, T/C (second compound 10 µM, first compound 10 µM): 84.3%

CC[C@@]1(O)C(=O)OCc2c1cc1n(c2=O)Cc2cc3c(CN(C)C)c(O)ccc3nc2-1 + Cc1[nH]c2ccc(F)cc2c1-c1nc2c3cccnc3c3ncccc3c2[nH]1
IC50 (second compound 0.0316 µM): > 316 nM
IC50 (second compound 0.1 µM): > 316 nM
IC50 (second compound 0.316 µM): > 316 nM
IC50 (second compound 1 µM): > 316 nM
IC50 (second compound 3.16 µM): > 316 nM
IC50 (second compound 10 µM): > 316 nM
viability, T/C [13]: 97.8%
viability, T/C [14]: 91.4%
viability, T/C [15]: 99.2%
viability, T/C [1]: 86.7%
viability, T/C [16]: 90.6%
viability, T/C [2]: 55.9%
viability, T/C [17]: 92%
viability, T/C [18]: 89.1%
viability, T/C [19]: 75.6%
viability, T/C [3]: 82.8%
viability, T/C [20]: 61.2%
viability, T/C [4]: 54.7%
viability, T/C [21]: 85.9%
viability, T/C [22]: 72.1%
viability, T/C [23]: 81.3%
viability, T/C [5]: 97%
viability, T/C [24]: 85.5%
viability, T/C [6]: 55.1%
viability, T/C [25]: 80.8%
viability, T/C [26]: 59.6%
viability, T/C [27]: 85.8%
viability, T/C [7]: 93%
viability, T/C [28]: 80.2%
viability, T/C [8]: 62.6%
viability, T/C [29]: 51.4%
viability, T/C [30]: 82.8%
viability, T/C [31]: 61%
viability, T/C [9]: 51.2%
viability, T/C [32]: 90.5%
viability, T/C [10]: 70.8%
viability, T/C [33]: 71.8%
viability, T/C [34]: 82.4%
viability, T/C [35]: 77.3%
viability, T/C [11]: 62.2%
viability, T/C [36]: 62.9%
viability, T/C [12]: 58.9%

CCc1c2c(nc3ccc(O)cc13)-c1cc3c(c(=O)n1C2)COC(=O)[C@]3(O)CC + Cc1[nH]c2ccc(F)cc2c1-c1nc2c3cccnc3c3ncccc3c2[nH]1
IC50 (second compound 0.0316 µM): 11.9 nM
IC50 (second compound 0.1 µM): 9.18 nM
IC50 (second compound 0.316 µM): 11.9 nM
IC50 (second compound 1 µM): 8.52 nM
IC50 (second compound 3.16 µM): 10.7 nM
IC50 (second compound 10 µM): 6.48 nM
viability, T/C [13]: 84.3%
viability, T/C [14]: 94.4%
viability, T/C [15]: 54.2%
viability, T/C [1]: 16.6%
viability, T/C [16]: 7.8%
viability, T/C [2]: 2.95%
viability, T/C [17]: 75%
viability, T/C [18]: 74.8%
viability, T/C [19]: 45.2%
viability, T/C [3]: 22%
viability, T/C [20]: 5.55%
viability, T/C [4]: 2.19%
viability, T/C [21]: 90.5%
viability, T/C [22]: 94.3%
viability, T/C [23]: 53.3%
viability, T/C [5]: 19.2%
viability, T/C [24]: 7.44%
viability, T/C [6]: 2.71%
viability, T/C [25]: 81.9%
viability, T/C [26]: 76.6%
viability, T/C [27]: 44.4%
viability, T/C [7]: 19.6%
viability, T/C [28]: 6.99%
viability, T/C [8]: 7.31%
viability, T/C [29]: 69%
viability, T/C [30]: 56.6%
viability, T/C [31]: 54%
viability, T/C [9]: 22.1%
viability, T/C [32]: 7.42%
viability, T/C [10]: 2.8%
viability, T/C [33]: 69.2%
viability, T/C [34]: 52.8%
viability, T/C [35]: 48%
viability, T/C [11]: 17.1%
viability, T/C [36]: 3.72%
viability, T/C [12]: 2.19%
